In patent US5916915A, “Water-in-stable L-ascorbic acid derivative and a method for preparation thereof, and a skin-whitening cosmetic composition containing the same” (priority 1997, dated 1999):

How the values were obtained:
[1] = system: eye of New Zealand White rabbits; test: Eye Irritation Test; assay type: in vivo; details: rabbit
Description: Test was carried out using the nine(9) of New Zealand White rabbits.
0.1 ml of AsA-APPA of Preparation Ex. 2 was diluted with physiological saline to give 10% of test sample. This test sample was dropped onto the right eye of each rabbit, taking the left eye as a control. After 20~30 seconds, only three(3) rabbits of them were washed sufficiently with the sterilized saline.

[2] = system: skin of New Zealand White male rabbits; test: Primary Skin Irritation Test; assay type: in vivo; details: rabbit
Description: Test was carried out for twelve(12) of New Zealand White male rabbits whose backs were depilated before 24 hours. And, 0.1 ml of AsA-APPA of Preparation Ex. 2 was diluted with physiological saline to give 50% of test sample.
The test sample was applied to two sites (2.5 cm×2.5 cm) of the right back (amount of AsA-APPA per site: 0.5 ml). As a control, two sites (2.5 cm×2.5 cm) of the left back were treated with 1.0 ml of physiological saline. Each tested site was covered with a gauze, which was fixed using an non-irritative tape. 24 Hours later, the tested sites were washed with physiological saline.

ICR mice [3] = test: Acute Oral Toxicity Test; assay type: in vivo
Description: (§1) 10 ml/kg of AsA-APPA of Preparation Ex. 2 was diluted with physiological saline to give 50% of test sample. This test sample was orally administrated into the ten(10) of ICR mice(five males and five females) weighing 20~33 g (administrated amount of AsA-APPA: 5 g/kgweight). As a control, 10 ml/kg of physiological saline was orally administrated into the ten(10) of ICR mice(five males and five females) weighing 20~33 g (administrated amount of AsA-APPA: 0 g/kgweight).
(§2) At that day, general appearance was observed every hour for 6 hours. And, from the next day to 14 days, every day, were observed general appearance(clinical symptoms), toxic symptoms, death and the like. Further, change of weight was measured at 1, 3, 7 and 14 days.
(§3) Any of the mice dead during observation period were immediately subjected to autopsy, and the survival mice were subjected to autopsy after observation period.

Acute Oral Toxicity Test = assay type: in vivo, ICR mice; details: mouse, in vivo, po, acute oral, ICR mice, Litchfield-Wilcoxon's method; read-out: LD50 (lethal dose)
Description: as §1, §2, §3

fibroblast = test: Proliferation of fibroblast (MTT method); assay type: cell-based; details: as low as, DMEM
Description: The skin obtained from new epidermal tissue was treated with Type 1 collagenase to remove epidermis. The obtained fibroblast was cultured on Dulbecco's Modified Eagle's Media(DMEM).
Amount of fibroblast was measured by way of MTT method.

ICR mice [4] = test: Acute Dermal Toxicity Test; assay type: in vivo
Description: (§4) 4 ml/kg of AsA-APPA of Preparation Ex. 2 was diluted with physiological saline to give 50% of test sample. This test sample was percutaneously administrated into the ten(10) of ICR mice(five males and five females) weighing 20~33 g (administrated amount of AsA-APPA: 2 g/kgweight). As a control, 4 ml/kg of physiological saline was percutaneously administrated into the ten(10) of ICR mice(five males and five females) weighing 20~33 g (administrated amount of AsA-APPA: 0 g/kgweight).
(§5) Before about 24 hours, the back of each mouce was depilated in a size of 1.5×1.5 cm^2. Then, each depilated site was covered with a gauze of 1×1 cm^2 applied with one of the test and control samples, and fixed using an non-irritative tape, for 24 hours.
(§6) At that day, general appearance was observed every hour for 6 hours. And, from the next day to 14 days, every day, were observed general appearance(clinical symptoms), toxic symptoms, death and the like. Further, change of weights was measured at 1, 3, 7 and 14 days.
as §3

[5] = Acute Dermal Toxicity Test; assay type: in vivo, ICR mice; details: mouse, in vivo, topical or ocular, acute dermal, ICR mice, Litchfield-Wilcoxon's method; read-out: LD50 (lethal dose)
Description: as §4, §5, §6, §3

[6] = Stability of AsA-APPA in pH 7 buffer at 50° C. (residual ratio by UV absorbance); assay type: physicochemical
Description: L-Ascorbic acid and AsA-APPA produced in Preparation Ex. 2 were dissolved in buffer solutions of pH 7 to concentrations of 50 μM, respectively, and then maintained in a thermostat of 50° C. At constant intervals, UV absorbances were measured at 259 nm for AsA-APPA and at 266 nm for L-ascorbic acid, to evaluate the stabilities of the test samples as residual ratio(%).

skin of Guinea pigs = test: Skin Sensitization Test (Guinea Pig Maximization test); assay type: in vivo, Guinea pigs (Hartley Albino Guinea Pig)
Description: Test was carried out for six(6)(three males and three females) of Guinea pigs(Hartley Albino Guinea Pig) weighing 300~360 g according to Maggnusson and Kligman's procedure (Guinea Pig Maximization test).
In order to determine the concentrations of the test samples to be applied in Induction test for light irritation and Challenge test for no irritation, for three(3) of Guinea pigs for each test, primary irritations were taken with 6.25%, 12.5% and 25.0% of the test samples, respectively. For each animal, each site (2.5×2.5 cm) of right and left of the back was treated with three concentrations of the test samples in an amount of 0.5 ml/site of AsA-APPA, and then covered with a gauze, which was fixed using an non-irritative tape, for 24 hours. Next, 0.1 ml of 25% of AsA-APPA was intradermally injected to each of two pigs(one male and one female) using 26-gauge 1/2-inched needle. 7 Days later, the same sites were depilated and pretreated with 10% of SLS in petrolatum. Then, each tested site was treated with 0.5 ml/site of AsA-APPA, and then covered with a gauze, which was fixed using an non-irritative tape, for 48 hours. 2 Weeks later, the left back of the depilated pig was treated with the test sample and the right back was treated with physiological saline. 24 Hours later, the tested sites were washed with physiological saline.
As a control, test was carried out using physiological saline, instead of the test sample, in the same procedure.

In the case of `NCCCOP(=O)(O)OC1=C(O)[C@@H]([C@@H](O)CO)OC1=O` [AsA-APPA, 2-(3-aminopropanephosphoric acid)-L-ascorbate], the “Evaluation of eye irritation” value [1] was “No irritative”, the “eye irritation on cornea, iris and conjunctiva” value ([1]; after 24 hours or 48 hours, 10% test sample) was “no eye irritation on cornea, iris and conjunctiva was observed” and the “Irritation rate of eye mucos (M.O.I)” value ([1]; washed and non-washed cases) was 0. For the same compound, the “Evaluation of primary skin irritation” value [2] was “non-irritative or very low-irritative”, the “skin abnormality such as erythema and edema” value ([2]; 24 or 72 hours after removing the patches) was “no skin abnormality such as erythema and edema was observed” and the “Draize's PII (Primary Irritation Index)” value ([2]; due to erythema) was 0.13. The Evaluation (ICR mice [3]; Acute oral toxicity test) was “Innoxious”, the “LD50 (lethal dose)” value (ICR mice [3]; acute oral, ICR mice, Litchfield-Wilcoxon's method, 20160 min) was over 5000 mg/kg and the autopsy findings (ICR mice [3]; oral, 5 g/kg) was “no abnormal symptom was observed”. The “weight changes in comparison to the control” value (ICR mice [3]; oral, 5 g/kg, 1, 3, 7 and 14 days) was “no significant difference”, the death (ICR mice [3]; oral, 5 g/kg, 14 days) was “no dead mice” and the LD50 at 336 h (Acute Oral Toxicity Test) was 5000 mg/kg. For the same compound, the “concentration showing effective fibroblast proliferation” value (fibroblast) was 10 mM, the Evaluation (ICR mice [4]; Acute dermal toxicity test) was “Innoxious” and the “LD50 (lethal dose)” value (ICR mice [4]; acute dermal, ICR mice, Litchfield-Wilcoxon's method, 20160 min) was over 2000 mg/kg. For the same compound, the autopsy findings (ICR mice [4]; percutaneous, 2 g/kg) was “no abnormal symptom was observed”, the “weight changes in comparison to the control” value (ICR mice [4]; percutaneous, 2 g/kg, 1, 3, 7 and 14 days) was “no significant difference” and the death (ICR mice [4]; percutaneous, 2 g/kg, 14 days) was “no dead mice”. The LD50 at 336 h [5] was 2000 mg/kg, the “stability in neutral aqueous solution” value ([6]; pH 7, 50° C.) was “very stable” and the remaining at 0.5 h, 50 µM ([6]; ph 7 buffer, 30 min., pH 7, 50 μM, 50° C.) was 100%. The remaining at 1 h, 50 µM ([6]; ph 7 buffer, 1 hr., pH 7, 50 μM, 50° C.) was 100%, the remaining at 3 h, 50 µM ([6]; ph 7 buffer, 3 hr., pH 7, 50 μM, 50° C.) was 100% and the remaining at 6 h, 50 µM ([6]; ph 7 buffer, 6 hr., pH 7, 50 μM, 50° C.) was 100%. For the same compound, the remaining at 24 h, 50 µM ([6]; ph 7 buffer, 24 hr., pH 7, 50 μM, 50° C.) was 99.1%, the remaining at 144 h, 50 µM ([6]; ph 7 buffer, 6 days, pH 7, 50 μM, 50° C.) was 95.5% and the remaining at 240 h, 50 µM ([6]; ph 7 buffer, 10 days, pH 7, 50 μM, 50° C.) was 93.5%. For the same compound, the “Evaluation of skin sensitization” value (skin of Guinea pigs; Guinea pig) was “very safe to the skin”, the “skin abnormality such as erythema and edema” value (skin of Guinea pigs; Guinea pig, 24, 48 and 72 hours after removing the patches) was “no skin abnormality such as erythema and edema was observed” and the “Kligman's grade” value (skin of Guinea pigs; Guinea pig, Kligman's criterion) was 1.
